Here are results for 2 compounds from patent US7638624B2, “Compositions and methods relating to novel benzodiazepine compounds and derivatives” (The Regents of the University of Michigan, priority 2005, dated 2009).

Broadly, the IC50 is the concentration needed to halve the response being measured.

The structures appear in SMILES notation.

Test [1] concerns Ramos cells. Description: Detection of cell death in Ramos cells, viability by propidium iodide staining. Type of test: cell-based. Conditions: 24 hours, 2% FBS, PI 1 μg/mL, FIG. 1. As to the method: (§1) Ramos cells were exposed to the following compounds:
Cell viability was assessed by staining with propidium iodide (PI, 1 μg/mL).

In test [2] the test system is Ramos cells. Put plainly: Ramos cells exposed to compounds, O2- detected with dihydroethidium (DHE). Type of test: cell-based. To be noted: 1 hour, 2% FBS, FIG. 2. How it is done:
as §1
To detect O2^−, cells were incubated with dihydroethidium (DHE).

A further test addresses F1F0-ATPase. To be noted: F1F0-ATPase inhibition; cited from earlier work.

For the compound `CC1CN(c2ccc(O)cc2)c2cc(Cl)ccc2N(Cc2ccc3ccccc3c2)C1=O` (stereo not drawn) [GD-423], the “cellular death (cell viability by propidium iodide staining)” value with Ramos cells [1] is “causes cell death”. Also, the “cellular death (O2- detection with dihydroethidium)” value with Ramos cells [2] is on record as “causes cell death”.

Turning to `CC[C@H]1/C=C/C=C/C[C@@H](C)[C@H](O)[C@@](C)(O)C(=O)[C@@H](C)[C@H](O)[C@@H](C)C(=O)[C@@H](C)[C@H](O)[C@@H](C)/C=C/C(=O)O[C@@H]2[C@H](C)[C@H](CC1)O[C@]1(CC[C@H](C)[C@H](C[C@@H](C)O)O1)[C@H]2C` [oligomycin], the IC50 at F1F0-ATPase is 10 nM.
